This is an account of results in patent US20230079687A1, “ALKYLRESORCINOL HOMOLOGUES AS ANTIOXIDANTS” (The Penn State Research Foundation, priority 2021, published 2023).

Some results are limits rather than exact numbers.

The conditions of assay [1]: literature, same low-moisture model cracker system; cited from earlier work.
Assay [2] in a line: Formation of lipid hydroperoxides in antioxidant-treated crackers during storage. The method, then:
(§1) Based on the concentrations of the individual AR stock solutions previously determined, an appropriate volume, containing 153 μmol of the respective individual AR homologue, was measured into plastic centrifuge tubes to prepare individual AR homologue treatments. A treatment containing a mixture of the individual AR homologues, at their natural abundance in rye bran, was prepared by combining 25.3% of C17:0, 32.0% of C19:0, 22.6% of C21:0, 12.5% of C23:0, and 7.6% of C25:0. The same procedure was carried out with 10 mM stock solutions of orcinol, α-tocopherol, and butylated hydroxytoluene (BHT) and all treatments were dried under a stream of nitrogen. Ethanol (1.0 mL) was added to the dried treatments (and a control treatment containing no antioxidant) and mixed with 10 g of melted ISO. The antioxidant activity of each treatment was tested at 153 μmol because this corresponds to 500 ppm of C21:0 in the final cracker which is a typical antioxidant concentration used in bakery applications.
(§2) Antioxidant-treated ISO was melted at 90° C. for 10 minutes and mixed in a stand mixer (KSM95, KitchenAid, Benton Harbor, Mich., U.S.) using a beater blade for 1 minute (speed 2). Sifted flour, salt, and baking soda were added and mixed using a beater blade for 1 minute (speed 2). Water was added and mixed using a dough hook for 1 minute (speed 2). The additional flour was sprinkled onto the surface of a baking mat and incorporated into the dough by kneading by hand (30 folds). The dough was flattened by passing it through a pasta roller (KPSA, KitchenAid, Benton Harbor, Mich., U.S.) twice (thickness setting 2). The sheeted dough was cut into 2.5 cm×2.5 cm crackers and baked on an ungreased baking sheet for 9 minutes at 163° C. (FD 53-UL, Binder, Tuttlingen, Germany). After cooling to room temperature, crackers were coarsely crumbled using a mortar and pestle and weighed (0.5 g) into 10 mL amber glass headspace vials (Supelco Analytical, Bellefonte, Pa., U.S.), sealed with stainless steel screw caps with PTFE/silicone septa (Supelco Analytical, Bellefonte, Pa., U.S.), and allowed to autoxidize at 55° C. in the absence of light for up to 160 days. Crackers were analyzed for lipid hydroperoxides, headspace hexanal, and AR loss every 5 days for day 0-50, every 10 days for day 51-100, and every 20 days for the remainder of the storage time.
Lipid hydroperoxides were determined according to the method described by Shantha & Decker (1994) with slight modifications. Cracker samples (0.1 g) were finely ground using a mortar and pestle and mixed with 5.0 mL chloroform/methanol (2:1 (v/v)) by vortexing (10 seconds, 3 times). The hydroperoxide-containing lipid fraction was extracted and isolated by centrifugation at 2500×g for 10 minutes (Centrifuge 5702, A-4-38 Rotor, Eppendorf, Hamburg, Germany). To this extract (1.0 mL), 16.7 μL of an iron chloride solution (prepared by mixing 50 mL 66 mM FeSO4 in water with 50 mL 38 mM BaCl2 in 0.4 N HCl) was added followed by 16.7 μL of ammonium thiocyanate (3.9 M in water), and allowed to react at room temperature for 20 minutes. The absorbance of the samples was measured at 500 nm (GENESYS 180 UV-Vis Spectrophotometer, Thermo Fisher Scientific, Waltham, Mass., U.S.) and lipid hydroperoxides were quantified based on a standard curve prepared using cumene hydroperoxide.
Individual AR homologues (C17:0, C19:0, C21:0, C23:0, C25:0) were added separately and as a mixture (AR Mix) to ISO and subsequently incorporated into the cracker samples. The antioxidant activities of the AR homologues in crackers were compared to orcinol (a water-soluble AR), conventional antioxidants (i.e., α-tocopherol, BHT), and a control treatment (i.e., no added antioxidant). The crackers were allowed to autoxidize in the absence of light and primary (i.e., lipid hydroperoxides) and secondary products (i.e., headspace hexanal) of lipid oxidation were measured as a function of time.

A short description of assay [3]: Formation of headspace hexanal in antioxidant-treated crackers during storage. The method, then:
as §1, §2
Cracker samples were prepared for GC-MS analysis by adding 10 μL of 100 mg/L 2-methypentanal (internal standard) in methanol directly through the capped headspace vial's septum. The GC system consisted of a 7890B gas chromatograph (Agilent, Santa Clara, Calif., U.S.) with sample introduction by means of an autosampler (Robotic MultiPurpose Sampler, Gerstel, Mülheim, Germany). Samples were equilibrated for 10 minutes at 55° C. with continuous shaking. A 50/30 μm divinylbenzene/carboxen/polydimethylsiloxane (DVB/CAR/PDMS) (1 cm) (Supelco Analytical, Bellefonte, Pa., U.S.) solid phase microextraction (SPME) fiber was exposed to the sample headspace for 2 minutes at 55° C. The SPME fiber was desorbed for 6 minutes at 250° C. in the injection port equipped with a SPME inlet liner at a split ratio of 10:1. Volatile aldehydes were separated on a Rtx-WAX capillary column (30 m, 0.25 mm i.d., 0.25 μm film thickness) (Restek, Bellefonte, Pa., U.S.). An oven program was followed to separate the different volatile aldehydes at a constant helium carrier gas flow rate of 1.22 mL/min. The oven program was as follows: hold at 40° C. for 1 minute; ramp at 10° C./min to 75° C.; ramp at 100° C./min to 250° C.; hold at 250° C. for 1.75 minutes. Detection and quantification of hexanal and 2-methylpentanal was achieved using a single quadrupole mass spectrometer (5977B, Agilent, Santa Clara, Calif., U.S.) coupled to the GC. The MS transfer line, quadrupole, and detector temperatures were set to 250° C., 230° C., 150° C., respectively. Mass spectra were collected in electron impact mode.

Assay [4] in a line: Antioxidant activity in the low-moisture model cracker system (overall lipid oxidation study). The settings on record: 153 μmol antioxidant. The method, then: Based on the concentrations of the individual AR stock solutions previously determined, an appropriate volume, containing 153 μmol of the respective individual AR homologue, was measured into plastic centrifuge tubes to prepare individual AR homologue treatments. […] The same procedure was carried out with 10 mM stock solutions of orcinol, α-tocopherol, and butylated hydroxytoluene (BHT) and all treatments were dried under a stream of nitrogen. Ethanol (1.0 mL) was added to the dried treatments (and a control treatment containing no antioxidant) and mixed with 10 g of melted ISO. […] Antioxidant-treated ISO was melted at 90° C. for 10 minutes and mixed in a stand mixer (KSM95, KitchenAid, Benton Harbor, Mich., U.S.) using a beater blade for 1 minute (speed 2). […] flour, salt, and baking soda were added and mixed using a beater blade for 1 minute (speed 2). Water was added and mixed using a dough hook for 1 minute (speed 2). The additional flour was sprinkled onto the surface of a baking mat and incorporated into the dough by kneading by hand (30 folds). The dough was flattened by passing it through a pasta roller (KPSA, KitchenAid, Benton Harbor, Mich., U.S.) twice (thickness setting 2). The sheeted dough was cut into 2.5 cm×2.5 cm crackers and baked on an ungreased baking sheet for 9 minutes at 163° C. (FD 53-UL, Binder, Tuttlingen, Germany). […] Individual AR homologues (C17:0, C19:0, C21:0, C23:0, C25:0) were added separately and as a mixture (AR Mix) to ISO and subsequently incorporated into the cracker samples. The antioxidant activities of the AR homologues in crackers were compared to orcinol (a water-soluble AR), conventional antioxidants (i.e., α-tocopherol, BHT), and a control treatment (i.e., no added antioxidant). The crackers were allowed to autoxidize in the absence of light and primary (i.e., lipid hydroperoxides) and secondary products (i.e., headspace hexanal) of lipid oxidation were measured as a function of time.

The conditions of assay [5]: oxygen radical absorbance capacity assay, earlier work of the Inventors; cited from earlier work.

Turning to `CCCCCCCCCCCCCCCCCCCCOC(=O)C(Cc1ccc(O)c(O)c1)OC(=O)C=Cc1ccc(O)c(O)c1` (stereo not shown) [eicosyl ester], in assay [1], the “antioxidant activity against formation of lipid hydroperoxides and hexanal” value was “stronger antioxidant activity than rosmarinic acid and the dodecyl ester”.

Take `Cc1cc(O)cc(O)c1` [orcinol]: the “course of lipid hydroperoxide formation after the lag phase (in words)” value in assay [2] (153 μmol antioxidant in crackers, 55° C., FIG. 1) is on record as “oxidizing most rapidly”. In assay [2] (153 μmol antioxidant in crackers, autoxidized at 55° C. in the absence of light, FIG. 1), the “storage day at which lipid hydroperoxide concentration began to increase (end of lag phase)” value was determined as 25 days. Besides, in assay [2] (time to reach threshold [Hydroperoxides]=0.1 mM/g cracker, FIG. 3A), the “order of induction periods for lipid hydroperoxides” value is “AR Mix≈C23:0>C25:0>(C21:0≈C19:0)>(C19:0≈BHT)>(BHT≈orcinol)>(orcinol≈C17:0)>control>>α-tocopherol”. Also, the “activity concluded from headspace hexanal formation” value in assay [3] (153 μmol antioxidant in crackers, 55° C., compared to control crackers) is “neither prooxidant or antioxidant activity”. Further, the “storage day at which headspace hexanal began to increase (end of lag phase)” value in assay [3] (153 μmol antioxidant in crackers, autoxidized at 55° C. in the absence of light, FIG. 2) was over 35 days. Moreover, in assay [3] (time to reach threshold [Hexanal]=1.0 mM/g cracker, FIG. 3B), the “order of induction periods for headspace hexanal” value was “C23:0>BHT>C25:0 AR Mix>C21:0>C19:0≈C17:0>control≈orcinol>>α-tocopherol”. Further, the “antioxidant activity in the low-moisture model cracker system (in words)” value in assay [4] was “weak to no antioxidant activity”. Besides, the radical scavenging capacity entry in assay [5] is recorded as “strongest antiradical activity”.

For `O=C(/C=C/c1ccc(O)c(O)c1)O[C@H](Cc1ccc(O)c(O)c1)C(=O)O` [rosmarinic acid], in assay [1], the “antioxidant activity against formation of lipid hydroperoxides and hexanal” value is “weak antioxidant and prooxidant activity”.
